ChEMBL document CHEMBL1914357, “Synthesis of anomeric 1,5-anhydrosugars as conformationally locked selective α-mannosidase inhibitors” (Bioorg Med Chem, 2011)
Activity calls are given as the source filed them. The rule behind the calls is not given here.

Key:
[1] = Inhibition of alpha-mannosidase
[2] = Inhibition of jack bean alpha-mannosidase assessed as p-nitrophenol release using p-nitrophenyl-alpha-D-mannopyranoside as substrate after 15 to 60 mins by spectrophotometry; set-up: species or system Canavalia ensiformis
[3] = Inhibition of alpha-galactosidase assessed as p-nitrophenol release using p-nitrophenyl-alpha-D-galactopyranoside as substrate preincubated for 1 hr before substrate addition measured after 10 mins by spectrophotometry
[4] = Inhibition of alpha-glucosidase assessed as p-nitrophenol release using p-nitrophenyl-alpha-D-glucopyranoside as substrate preincubated for 1 hr before substrate addition at pH 6.8 measured after 10 mins by spectrophotometry
[5] = Inhibition of jack bean alpha-mannosidase assessed as p-nitrophenol release using p-nitrophenyl-alpha-D-mannopyranoside as substrate preincubated for 1 hr before substrate addition at pH 4.5 measured after 10 mins by spectrophotometry; set-up: species or system Canavalia ensiformis
[6] = biological target: T1, Pancreatic alpha-amylase (Sus scrofa) (UniProt P00690); assay: Inhibition of pig pancreatic alpha-amylase assessed as maltose release from starch at 5 mg/cm'3 after 10 mins by DNSA assay
T1 sequence (whole entry): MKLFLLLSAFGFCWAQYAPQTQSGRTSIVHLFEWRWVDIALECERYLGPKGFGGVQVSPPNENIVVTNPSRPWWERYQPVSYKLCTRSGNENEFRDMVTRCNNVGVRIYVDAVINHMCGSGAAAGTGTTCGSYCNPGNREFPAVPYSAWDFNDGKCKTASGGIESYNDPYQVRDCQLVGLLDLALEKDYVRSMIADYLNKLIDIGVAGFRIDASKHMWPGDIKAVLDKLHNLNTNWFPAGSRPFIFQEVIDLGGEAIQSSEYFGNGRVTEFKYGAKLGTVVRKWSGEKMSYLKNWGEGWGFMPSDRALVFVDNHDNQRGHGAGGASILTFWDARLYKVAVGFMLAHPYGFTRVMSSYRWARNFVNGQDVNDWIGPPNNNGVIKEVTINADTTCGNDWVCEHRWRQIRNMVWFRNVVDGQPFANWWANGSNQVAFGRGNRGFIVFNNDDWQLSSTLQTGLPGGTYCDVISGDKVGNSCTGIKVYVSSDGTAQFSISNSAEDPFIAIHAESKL

| SMILES | inhibition [3] | inhibition [4] | IC50 [5] [µM] | inhibition [6] | IC50 [1] [µM] | IC50 [2] [µM] |
| --- | --- | --- | --- | --- | --- | --- |
| OC[C@@H]1CC2C(O)C(O)C1(O)CN2Cc1ccccc1 (stereo partly specified) |  |  |  |  | 20000 |  |
| O[C@H]1[C@H]2[C@H](O)CCCN2C[C@H]1O [TRIDOLGOSIR] |  |  |  |  |  | 0.1 |
| OC[C@@H]1CC2NCC1(O)C(O)C2O (stereo partly specified) |  |  |  |  | 9600 |  |

The next lines start with results.

| inhibition [3] | inhibition [4] | IC50 [5] [µM] | inhibition [6] | SMILES | IC50 [1] [µM] | IC50 [2] [µM] |
| --- | --- | --- | --- | --- | --- | --- |
| inactive | inactive | 133 | inactive | OC[C@H]1O[C@@H]2OCC[C@@]1(O)[C@H]2O |  |  |
| inactive | inactive | 98.3 | inactive | NC[C@H]1O[C@@H]2OCC[C@@]1(O)[C@H]2O |  |  |
